Experimental data reported in the kinase profiling compilation of Christmann-Franck et al. (2016).

Legend:
LRRK2 (human) [1] = target: LRRK2 (human) (UniProt Q5S007); test: HTRF; settings: ATP 100 µM
[2] = target: LRRK2 (human), Q5S007 [G2019S]; test: HTRF; settings: ATP 100 µM
ABL1 (human) = ABL1 (human) (UniProt P00519); test: SelectScreen, TR FRET; settings: compound 10.0 µM
AKT1 (human) = AKT1 (human) (UniProt P31749); test: SelectScreen, TR FRET
AURKA (human) = AURKA (human) (UniProt O14965); test: SelectScreen, TR FRET; settings: compound 10.0 µM
CAMK2A (human) = CAMK2A (human) (UniProt Q9UQM7); test: SelectScreen, TR FRET
CDK1 CCNB1 (human) = CDK1 CCNB1 (human) (UniProt P06493+P14635); test: SelectScreen, TR FRET; settings: compound 10.0 µM
CDK2 CCNA2 (human) = CDK2 CCNA2 (human) (UniProt P24941+P20248); test: SelectScreen, TR FRET
CDK5 CDK5R1 p25 (human) = CDK5 CDK5R1 p25 (human) (UniProt Q15078+Q00535); test: SelectScreen, TR FRET
CHEK1 (human) = CHEK1 (human) (UniProt O14757); test: SelectScreen, TR FRET; settings: compound 10.0 µM
CLK1 (human) = CLK1 (human) (UniProt P49759); test: SelectScreen, TR FRET; settings: compound 10.0 µM
CSF1R (human) = CSF1R (human) (UniProt P07333); test: SelectScreen, TR FRET; settings: compound 10.0 µM
DYRK1B (human) = DYRK1B (human) (UniProt Q9Y463); test: SelectScreen, TR FRET; settings: compound 10.0 µM
ERBB4 (human) = ERBB4 (human) (UniProt Q15303); test: SelectScreen, TR FRET
FLT3 (human) = FLT3 (human) (UniProt P36888); test: SelectScreen, TR FRET
GSK3B (human) = GSK3B (human) (UniProt P49841); test: SelectScreen, TR FRET
INSR (human) = INSR (human) (UniProt P06213); test: SelectScreen, TR FRET
IRAK4 (human) = IRAK4 (human) (UniProt Q9NWZ3); test: SelectScreen, TR FRET
JAK1 JH1 JH2 (human) = JAK1 JH1 JH2 (human) (UniProt P23458); test: SelectScreen, TR FRET
LCK (human) = LCK (human) (UniProt P06239); test: SelectScreen, TR FRET
LRRK2 (human) [3] = target: LRRK2 (human) (UniProt Q5S007); test: SelectScreen, TR FRET; settings: compound 10.0 µM
MAP3K7 TAB1 (human) = MAP3K7 TAB1 (human) (UniProt Q15750+O43318); test: SelectScreen, TR FRET
MAPK1 (human) = MAPK1 (human) (UniProt P28482); test: SelectScreen, TR FRET
MAPK10 (human) = MAPK10 (human) (UniProt P53779); test: SelectScreen, TR FRET
MARK2 (human) = MARK2 (human) (UniProt Q7KZI7); test: SelectScreen, TR FRET; settings: compound 10.0 µM
PAK4 (human) = PAK4 (human) (UniProt O96013); test: SelectScreen, TR FRET; settings: compound 10.0 µM
PDGFRA (human) = PDGFRA (human) (UniProt P16234); test: SelectScreen, TR FRET
PIK3CA PIK3R1 (human) = PIK3CA PIK3R1 (human) (UniProt P27986+P42336); test: SelectScreen, TR FRET
PLK1 (human) = PLK1 (human) (UniProt P53350); test: SelectScreen, TR FRET
PLK2 (human) = PLK2 (human) (UniProt Q9NYY3); test: SelectScreen, TR FRET; settings: compound 10.0 µM
PLK3 (human) = PLK3 (human) (UniProt Q9H4B4); test: SelectScreen, TR FRET
PRKACA (human) = PRKACA (human) (UniProt P17612); test: SelectScreen, TR FRET; settings: compound 10.0 µM
PRKCB1 (human) = PRKCB1 (human) (UniProt P05771); test: SelectScreen, TR FRET
PTK2B (human) = PTK2B (human) (UniProt Q14289); test: SelectScreen, TR FRET
RAF1 (human) = RAF1 (human) (UniProt P04049); test: SelectScreen, TR FRET
RET (human) = RET (human) (UniProt P07949); test: SelectScreen, TR FRET; settings: compound 10.0 µM
RIPK2 (human) = RIPK2 (human) (UniProt O43353); test: SelectScreen, TR FRET; settings: compound 10.0 µM
ROCK2 (human) = ROCK2 (human) (UniProt O75116); test: SelectScreen, TR FRET
STK16 (human) = STK16 (human) (UniProt O75716); test: SelectScreen, TR FRET
STK3 (human) = STK3 (human) (UniProt Q13188); test: SelectScreen, TR FRET
SYK (human) = SYK (human) (UniProt P43405); test: SelectScreen, TR FRET; settings: compound 10.0 µM
TTK (human) = TTK (human) (UniProt P33981); test: SelectScreen, TR FRET

Sequence of STK16 (human) (O75716 whole entry, looked up): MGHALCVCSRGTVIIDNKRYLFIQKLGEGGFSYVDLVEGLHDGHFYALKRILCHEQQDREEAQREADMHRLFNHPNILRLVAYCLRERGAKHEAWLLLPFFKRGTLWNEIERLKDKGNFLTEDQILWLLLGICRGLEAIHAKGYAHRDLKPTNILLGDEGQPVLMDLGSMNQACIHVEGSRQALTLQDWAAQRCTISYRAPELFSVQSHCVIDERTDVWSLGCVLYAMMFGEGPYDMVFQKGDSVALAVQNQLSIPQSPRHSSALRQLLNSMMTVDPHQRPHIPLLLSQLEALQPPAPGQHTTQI
Sequence of MAPK10 (human) (P53779 whole entry, looked up): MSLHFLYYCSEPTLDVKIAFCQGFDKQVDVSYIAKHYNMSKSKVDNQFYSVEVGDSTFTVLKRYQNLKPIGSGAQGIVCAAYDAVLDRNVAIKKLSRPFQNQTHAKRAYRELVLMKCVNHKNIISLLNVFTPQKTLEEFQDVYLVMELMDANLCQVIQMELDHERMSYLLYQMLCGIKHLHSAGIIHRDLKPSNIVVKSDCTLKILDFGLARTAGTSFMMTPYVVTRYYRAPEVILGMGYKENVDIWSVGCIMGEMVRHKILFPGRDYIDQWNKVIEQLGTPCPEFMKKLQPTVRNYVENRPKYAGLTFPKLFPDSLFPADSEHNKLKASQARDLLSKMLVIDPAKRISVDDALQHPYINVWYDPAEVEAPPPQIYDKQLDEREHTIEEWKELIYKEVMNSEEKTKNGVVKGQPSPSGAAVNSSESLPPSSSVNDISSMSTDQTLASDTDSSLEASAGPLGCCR
Sequence of LRRK2 (human) (Q5S007 whole entry, looked up): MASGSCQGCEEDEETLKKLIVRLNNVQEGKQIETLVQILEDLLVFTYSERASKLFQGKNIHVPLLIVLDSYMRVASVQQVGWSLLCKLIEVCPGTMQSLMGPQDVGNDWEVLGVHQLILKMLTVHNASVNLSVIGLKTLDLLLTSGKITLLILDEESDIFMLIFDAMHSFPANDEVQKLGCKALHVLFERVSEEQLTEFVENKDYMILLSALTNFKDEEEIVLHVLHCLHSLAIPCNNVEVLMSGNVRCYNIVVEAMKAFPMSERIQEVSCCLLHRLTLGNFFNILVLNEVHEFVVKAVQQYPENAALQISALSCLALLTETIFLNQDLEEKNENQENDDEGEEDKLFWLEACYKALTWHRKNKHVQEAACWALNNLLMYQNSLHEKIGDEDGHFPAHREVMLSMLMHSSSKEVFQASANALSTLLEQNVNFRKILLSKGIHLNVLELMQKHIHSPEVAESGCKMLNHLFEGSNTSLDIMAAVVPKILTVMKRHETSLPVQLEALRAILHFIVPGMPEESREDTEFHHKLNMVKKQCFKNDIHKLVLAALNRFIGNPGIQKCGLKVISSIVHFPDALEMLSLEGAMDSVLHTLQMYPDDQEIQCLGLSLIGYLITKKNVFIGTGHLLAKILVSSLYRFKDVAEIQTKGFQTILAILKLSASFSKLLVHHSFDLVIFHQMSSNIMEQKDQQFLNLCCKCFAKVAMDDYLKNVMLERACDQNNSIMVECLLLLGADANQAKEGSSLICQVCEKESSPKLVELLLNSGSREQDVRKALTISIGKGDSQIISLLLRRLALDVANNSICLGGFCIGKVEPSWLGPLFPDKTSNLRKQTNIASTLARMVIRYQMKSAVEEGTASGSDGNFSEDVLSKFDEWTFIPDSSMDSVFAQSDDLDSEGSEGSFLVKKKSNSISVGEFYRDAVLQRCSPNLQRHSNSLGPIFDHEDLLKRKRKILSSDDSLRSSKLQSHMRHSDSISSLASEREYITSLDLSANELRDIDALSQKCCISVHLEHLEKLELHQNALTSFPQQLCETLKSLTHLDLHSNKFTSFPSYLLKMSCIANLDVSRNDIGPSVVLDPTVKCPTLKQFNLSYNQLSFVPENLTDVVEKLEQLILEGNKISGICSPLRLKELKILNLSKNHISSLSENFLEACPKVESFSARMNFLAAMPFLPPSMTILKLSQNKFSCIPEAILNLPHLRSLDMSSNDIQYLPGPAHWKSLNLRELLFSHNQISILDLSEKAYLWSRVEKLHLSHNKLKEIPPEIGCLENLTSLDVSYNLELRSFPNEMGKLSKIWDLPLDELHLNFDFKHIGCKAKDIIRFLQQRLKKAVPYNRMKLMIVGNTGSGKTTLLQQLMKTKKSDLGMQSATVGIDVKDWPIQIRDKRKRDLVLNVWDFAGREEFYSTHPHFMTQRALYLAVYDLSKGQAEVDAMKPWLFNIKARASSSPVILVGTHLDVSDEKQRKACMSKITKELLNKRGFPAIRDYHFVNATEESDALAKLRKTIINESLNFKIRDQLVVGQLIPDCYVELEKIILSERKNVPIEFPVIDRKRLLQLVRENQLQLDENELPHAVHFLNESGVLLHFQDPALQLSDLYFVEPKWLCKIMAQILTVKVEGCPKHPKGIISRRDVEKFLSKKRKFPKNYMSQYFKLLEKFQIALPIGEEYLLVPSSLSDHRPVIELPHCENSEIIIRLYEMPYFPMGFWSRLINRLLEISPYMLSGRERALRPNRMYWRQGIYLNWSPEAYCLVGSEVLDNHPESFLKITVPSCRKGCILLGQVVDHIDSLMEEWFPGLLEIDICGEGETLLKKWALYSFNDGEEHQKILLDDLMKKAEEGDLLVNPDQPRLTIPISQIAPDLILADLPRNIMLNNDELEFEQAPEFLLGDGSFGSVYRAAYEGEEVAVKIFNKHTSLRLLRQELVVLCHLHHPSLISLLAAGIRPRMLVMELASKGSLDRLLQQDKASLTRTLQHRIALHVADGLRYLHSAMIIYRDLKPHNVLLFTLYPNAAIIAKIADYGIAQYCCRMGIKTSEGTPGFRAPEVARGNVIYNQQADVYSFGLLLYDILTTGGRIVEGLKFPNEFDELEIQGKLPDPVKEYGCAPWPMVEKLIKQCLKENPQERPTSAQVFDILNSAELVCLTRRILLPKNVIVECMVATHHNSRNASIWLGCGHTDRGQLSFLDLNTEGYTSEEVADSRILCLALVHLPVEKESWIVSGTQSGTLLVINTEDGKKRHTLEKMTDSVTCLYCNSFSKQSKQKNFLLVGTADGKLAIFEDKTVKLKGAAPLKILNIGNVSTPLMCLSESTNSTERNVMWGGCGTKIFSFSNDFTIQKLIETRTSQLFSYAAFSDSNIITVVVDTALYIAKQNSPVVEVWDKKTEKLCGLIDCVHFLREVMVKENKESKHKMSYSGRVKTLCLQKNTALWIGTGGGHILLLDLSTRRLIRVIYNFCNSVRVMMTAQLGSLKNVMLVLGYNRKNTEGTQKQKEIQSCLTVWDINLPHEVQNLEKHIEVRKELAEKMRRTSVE
Sequence of CDK2 CCNA2 (human) (P20248 whole entry, looked up, other chains not shown): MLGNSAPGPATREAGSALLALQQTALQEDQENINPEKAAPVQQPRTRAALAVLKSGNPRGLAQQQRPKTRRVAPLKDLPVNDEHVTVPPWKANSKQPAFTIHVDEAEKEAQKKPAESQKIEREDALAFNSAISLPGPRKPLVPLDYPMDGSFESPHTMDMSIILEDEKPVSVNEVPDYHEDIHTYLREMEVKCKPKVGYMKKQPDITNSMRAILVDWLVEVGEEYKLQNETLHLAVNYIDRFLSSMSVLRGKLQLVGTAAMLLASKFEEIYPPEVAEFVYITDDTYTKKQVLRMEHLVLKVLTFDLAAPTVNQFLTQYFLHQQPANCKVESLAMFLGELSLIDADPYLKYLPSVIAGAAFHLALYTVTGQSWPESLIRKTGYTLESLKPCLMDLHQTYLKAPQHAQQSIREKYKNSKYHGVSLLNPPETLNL
Sequence of JAK1 JH1 JH2 (human) (P23458 whole entry, looked up): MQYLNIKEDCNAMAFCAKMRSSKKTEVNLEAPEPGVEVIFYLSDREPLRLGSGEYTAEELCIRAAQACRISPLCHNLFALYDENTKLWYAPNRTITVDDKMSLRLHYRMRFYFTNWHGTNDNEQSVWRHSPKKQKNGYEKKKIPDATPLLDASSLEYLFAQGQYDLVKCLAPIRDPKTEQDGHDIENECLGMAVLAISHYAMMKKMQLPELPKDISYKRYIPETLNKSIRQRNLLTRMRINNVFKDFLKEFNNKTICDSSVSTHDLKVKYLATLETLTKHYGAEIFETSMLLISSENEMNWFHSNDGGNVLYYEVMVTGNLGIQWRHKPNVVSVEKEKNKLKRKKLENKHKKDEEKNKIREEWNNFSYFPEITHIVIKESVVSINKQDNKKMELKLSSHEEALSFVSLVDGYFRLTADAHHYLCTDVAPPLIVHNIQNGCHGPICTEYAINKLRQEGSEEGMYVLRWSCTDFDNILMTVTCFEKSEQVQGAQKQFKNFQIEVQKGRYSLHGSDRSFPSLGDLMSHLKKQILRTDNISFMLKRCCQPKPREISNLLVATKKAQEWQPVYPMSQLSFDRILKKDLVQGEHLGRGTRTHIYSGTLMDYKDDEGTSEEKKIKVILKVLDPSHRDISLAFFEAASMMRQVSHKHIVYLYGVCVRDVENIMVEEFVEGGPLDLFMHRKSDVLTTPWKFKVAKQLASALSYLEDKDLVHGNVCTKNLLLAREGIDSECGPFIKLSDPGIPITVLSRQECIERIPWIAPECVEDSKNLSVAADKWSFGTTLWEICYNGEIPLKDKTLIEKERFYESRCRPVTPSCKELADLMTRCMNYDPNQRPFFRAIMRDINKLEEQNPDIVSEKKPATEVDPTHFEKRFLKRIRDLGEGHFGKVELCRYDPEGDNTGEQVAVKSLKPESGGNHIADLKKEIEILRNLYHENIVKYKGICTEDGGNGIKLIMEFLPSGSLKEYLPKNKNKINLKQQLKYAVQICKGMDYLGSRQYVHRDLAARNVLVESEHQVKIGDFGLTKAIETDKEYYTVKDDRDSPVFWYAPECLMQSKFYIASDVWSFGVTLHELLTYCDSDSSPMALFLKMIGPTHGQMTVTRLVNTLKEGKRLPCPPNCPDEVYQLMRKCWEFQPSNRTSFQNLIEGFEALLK
Sequence of LRRK2 (human), Q5S007 [G2019S] (Q5S007 whole entry G2019S, looked up): as the sequence (Q5S007 whole entry, looked up) above, with G2019S counted along it

For `C[C@@H](Nc1c(C#N)cnc2cc(-c3ccc(N4CCOC4=O)cc3)ccc12)C1CC1`, the IC50 (LRRK2 (human) [1]) was 48 nM, the IC50 [2] was 27 nM and the inhibition (ABL1 (human)) was 29.9%. The inhibition (AKT1 (human); compound 10.0 µM) was -1.71%, the inhibition (AURKA (human)) was 66.7% and the inhibition (CAMK2A (human); compound 10.0 µM) was 29.7%. For the same compound, the inhibition (CDK1 CCNB1 (human)) was 11.7%, the inhibition (CDK2 CCNA2 (human); compound 10.0 µM) was 0.295% and the inhibition (CDK5 CDK5R1 p25 (human); compound 10.0 µM) was 5.49%. The inhibition (CHEK1 (human)) was 30.7%, the inhibition (CLK1 (human)) was 6.88% and the inhibition (CSF1R (human)) was 39.5%. For the same compound, the inhibition (DYRK1B (human)) was 23.7%, the inhibition (ERBB4 (human); compound 10.0 µM) was 6.95% and the inhibition (FLT3 (human); compound 10.0 µM) was 44.5%. For the same compound, the inhibition (GSK3B (human); compound 10.0 µM) was 0.682%, the inhibition (INSR (human); compound 10.0 µM) was 0.146% and the inhibition (IRAK4 (human); compound 10.0 µM) was 9.89%. For the same compound, the inhibition (JAK1 JH1 JH2 (human); compound 10.0 µM) was 4.09%, the inhibition (LCK (human); compound 10.0 µM) was 18.4% and the inhibition (LRRK2 (human) [3]) was 81.3%. The inhibition (MAP3K7 TAB1 (human); compound 10.0 µM) was -5.32%, the inhibition (MAPK1 (human); compound 10.0 µM) was -1.85% and the inhibition (MAPK10 (human); compound 10.0 µM) was -17.1%. It also gave an inhibition (MARK2 (human)) of 40.2%, an inhibition (PAK4 (human)) of 19.3% and an inhibition (PDGFRA (human); compound 10.0 µM) of 4.67%. It also gave an inhibition (PIK3CA PIK3R1 (human); compound 10.0 µM) of 13.5%, an inhibition (PLK1 (human); compound 10.0 µM) of 8.21% and an inhibition (PLK2 (human)) of 53.7%. The inhibition (PLK3 (human); compound 10.0 µM) was 5.89%, the inhibition (PRKACA (human)) was -2.65% and the inhibition (PRKCB1 (human); compound 10.0 µM) was -1.79%. It also gave an inhibition (PTK2B (human); compound 10.0 µM) of 15.9%, an inhibition (RAF1 (human); compound 10.0 µM) of 5.94% and an inhibition (RET (human)) of 11.8%. It also gave an inhibition (RIPK2 (human)) of 55.8%, an inhibition (ROCK2 (human); compound 10.0 µM) of 16.4% and an inhibition (STK16 (human); compound 10.0 µM) of -24.1%. For the same compound, the inhibition (STK3 (human); compound 10.0 µM) was 18.1%, the inhibition (SYK (human)) was 71% and the inhibition (TTK (human); compound 10.0 µM) was 11.2%.
`CC(C)Nc1c(C#N)cnc2cc(-c3cnn(C)c3)ccc12` showed an IC50 (LRRK2 (human) [1]) of 70 nM, an IC50 [2] of 50 nM and an inhibition (AKT1 (human); compound 1.0 µM) of -0.488%. For the same compound, the inhibition (CAMK2A (human); compound 1.0 µM) was 27.5%, the inhibition (CDK2 CCNA2 (human); compound 1.0 µM) was 5.33% and the inhibition (CDK5 CDK5R1 p25 (human); compound 1.0 µM) was 12.4%. For the same compound, the inhibition (ERBB4 (human); compound 1.0 µM) was 4.52%, the inhibition (INSR (human); compound 1.0 µM) was 1.29% and the inhibition (JAK1 JH1 JH2 (human); compound 1.0 µM) was 2.9%. The inhibition (MAPK1 (human); compound 1.0 µM) was -2.05%, the inhibition (MAPK10 (human); compound 1.0 µM) was 4.47% and the inhibition (PLK1 (human); compound 1.0 µM) was 23.6%. It also gave an inhibition (PLK3 (human); compound 1.0 µM) of 11.5%, an inhibition (PRKCB1 (human); compound 1.0 µM) of -7.3% and an inhibition (PTK2B (human); compound 1.0 µM) of 12.2%. For the same compound, the inhibition (RAF1 (human); compound 1.0 µM) was 12.4%, the inhibition (ROCK2 (human); compound 1.0 µM) was 14.2% and the inhibition (STK16 (human); compound 1.0 µM) was 10.1%. For the same compound, the inhibition (STK3 (human); compound 1.0 µM) was 15.4% and the inhibition (TTK (human); compound 1.0 µM) was -8.51%.
With `CC(C)Nc1c(C#N)cnc2cc(-c3ccc(S(C)(=O)=O)cc3)ccc12` the inhibition (AKT1 (human); compound 1.0 µM) was 9.66%, the inhibition (CDK2 CCNA2 (human); compound 1.0 µM) was 11.7% and the inhibition (FLT3 (human); compound 1.0 µM) was 15.5%. The inhibition (GSK3B (human); compound 1.0 µM) was 27.6%, the inhibition (IRAK4 (human); compound 1.0 µM) was 29.4% and the inhibition (JAK1 JH1 JH2 (human); compound 1.0 µM) was 16.5%. It also gave an inhibition (LCK (human); compound 1.0 µM) of 25.5%, an inhibition (MAP3K7 TAB1 (human); compound 1.0 µM) of 7.1% and an inhibition (MAPK1 (human); compound 1.0 µM) of 9.79%. The inhibition (MAPK10 (human); compound 1.0 µM) was -11.1%, the inhibition (PDGFRA (human); compound 1.0 µM) was 33.4% and the inhibition (PIK3CA PIK3R1 (human); compound 1.0 µM) was -1.66%. It also gave an inhibition (PLK3 (human); compound 1.0 µM) of 13.5%, an inhibition (PRKCB1 (human); compound 1.0 µM) of 19.4% and an inhibition (PTK2B (human); compound 1.0 µM) of 33.5%. For the same compound, the inhibition (RAF1 (human); compound 1.0 µM) was 3.26%, the inhibition (ROCK2 (human); compound 1.0 µM) was 11.8% and the inhibition (STK16 (human); compound 1.0 µM) was 3.38%. For the same compound, the inhibition (TTK (human); compound 1.0 µM) was -3.76%.
